Results as given in PubChem BioAssay (NCI).
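Tested at 5 concentrations; 48 h exposure; 96-well plates; endpoints linearly interpolated, else capped at highest concentration. Definition used: TGI = concentration required for complete inhibition of growth.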

Columns and labels:
Assay in all cases: DTP human tumour cell line panel, 48 h
[1] = tested on: KM12 colon
[2] = tested on: SK-MEL-5 melanoma
[3] = tested on: MDA-N
[4] = tested on: NCI-H460 lung
[5] = tested on: OVCAR-4 ovarian
[6] = tested on: SW-620 colon
[7] = tested on: EKVX NSCLC
[8] = tested on: SN12C renal
[9] = tested on: HT29 colon
[10] = tested on: U251 CNS

Compound | TGI [1] [µM] | TGI [2] [µM] | TGI [3] [µM] | TGI [4] [µM] | TGI [5] [µM] | TGI [6] [µM] | TGI [7] [µM] | TGI [8] [µM] | TGI [9] [µM] | TGI [10] [µM]
CCCN1C(=O)CCC2=C1CCc1c2ccc(Cl)c1Cl | > 100 | 60.4 | > 100 | > 100 | > 100 | > 100 | > 100 | > 100 | > 100 | > 100
CC(C)(C)c1ccc(CN2CCN(C(c3ccccc3)c3ccc(Cl)cc3)CC2)cc1 (stereo not given) | > 100 | 73.1 | > 100 | > 100 | > 100 | > 100 | > 100 | > 100 | 56.9 | > 100
COc1ccc(C2SCC(=O)N2c2ccc(-c3ccc(-n4c(-c5ccccc5)nc5ccccc5c4=O)cc3)cc2)cc1 (stereo not given) | 79.8 | > 100 | > 100 | > 100 | > 100 | > 100 | > 100 | > 100 | 30.5 | > 100
NC1C/C(=N\O)c2c(I)sc(I)c21 (stereo not given) | 27.7 | 28.4 | > 54 | 52 | > 64.9 | 29.4 | 40.4 | > 56.6 | 48.8 | 37.4
CN1C(c2ccccc2)=CC(=O)C(O)=C(c2ccccc2)S1(=O)=O | > 100 | > 100 | > 100 | > 100 | > 100 | > 100 | > 100 | > 100 | > 100 | > 100
CC(=O)C1=C(N=[N+]=[N-])c2cccc3cccc(c23)C1=O | 44.7 | 38.1 | 42.7 | 56.3 | 49.1 | 55.1 | 46.3 | 39.7 | 39.3 | 66
Nc1nc(Cl)cc(NCC2(CO)CCC(Cc3ccccc3)C2)n1 (stereo not given) | 49.8 | 15.6 | > 91.5 | > 100 | > 100 | > 100 | > 100 | > 100 | > 69.4 | > 100
CC(C)CCC1(O)O[C@H]2C[C@H]3[C@@H]4CCC5CC(=O)C=C[C@]5(C)[C@H]4CC[C@]3(C)[C@H]2[C@@H]1C (stereo not given in full) | 26.5 | 26.7 | 27 | 22.2 | 24.3 | 26.4 | 34.7 | 28 | 26.9 | 23.7
CCOP(=O)(/C=C\n1cnc2c(=O)n(C(C)=O)c(N)nc21)OCC | > 100 | > 100 | > 100 | > 100 | > 100 | > 100 | > 100 | > 100 | > 100 | > 100
O=C(CSc1nc(=O)[nH]c2nc[nH]c12)Nc1ccccc1 | > 100 | > 100 | > 100 | > 100 | > 100 | > 100 | > 100 | > 100 | > 100 | > 100
COC(=O)C(CCC1C=CCC1)N=Cc1ccccc1 (stereo not given) | > 100 | > 100 | > 100 | > 100 | > 100 | > 100 | > 100 | > 100 | > 100 | > 100
CC(=O)O[C@H]1C[C@]2(C)C(CCC3O[C@@]32C)[C@@]2(CC(c3ccoc3)OC2O)[C@@H]1C (stereo not given in full) | > 100 | > 100 | > 100 | > 100 | > 100 | > 100 | > 100 | > 100 | > 100 | > 100
CC1(c2ccc(Cl)cc2)CC(c2ccc(Cl)cc2)=C(C#N)C(=C(C#N)C#N)N1 (stereo not given) | 40.3 | 27.2 | 38.5 | 73.3 | 35.7 | > 100 | 35.6 | 37.2 | > 100 | 29.5
CC(=O)OCC1OC(n2c(N)c(C#N)c(-c3ccccc3)c(C#N)c2=S)C(OC(C)=O)C(OC(C)=O)C1OC(C)=O (stereo not given) | > 100 | > 100 | > 100 | > 100 | > 100 | > 100 | > 100 | > 100 | > 100 | 59.1
CC(=O)Nc1ccc(CNc2cc(=O)[nH]c(=O)[nH]2)cc1 | > 100 | > 100 | > 100 | > 100 | > 100 | > 100 | > 100 | > 100 | > 100 | > 100
Cc1cc(N(CCC#N)CCC#N)ccc1/C(N=Nc1cccc([N+](=O)[O-])c1)=N/NC(=O)c1cc(Cl)ccc1O | > 100 | 39.3 | > 100 | 88.6 | 92.2 | > 100 | 93.6 | > 100 | > 100 | > 100
O=C(O)CSc1cc(-c2ccccc2)nc2ccccc12 | > 100 | > 100 | > 100 | > 100 | > 100 | > 100 | > 100 | > 100 | > 100 | > 100
OCCN(CCO)c1ccc2c(C(F)(F)F)cc(C(F)(F)F)nc2n1 | > 100 | > 100 | > 100 | > 100 | > 100 | > 100 | > 100 | > 100 | > 100 | > 100
Cc1nc2c(o1)C(=O)c1ccccc1/C2=N/c1ccccn1 | 42.2 | 30.4 | 32.6 | 29.8 | 28.2 | 31.6 | 41.6 | 64.1 | 41.3 | 30.4
O=C(CN1CCN(C(=O)OCc2ccccc2)CCN(CC(=O)N2CCCCC2)CCN(C(=O)OCc2ccccc2)CC1)N1CCCCC1 | 46.3 | 19.2 | 29.7 | 26.7 | 25.4 | > 53.5 | > 56.7 | 26.8 | 28.6 | 34.4
O=C1C2C=CC1C1C(=O)OC(=O)C21 (stereo not given) | > 100 | > 100 | > 100 | > 100 | > 100 | > 100 | > 100 | > 100 | > 100 | > 100
